# In ChEMBL document CHEMBL4196065, “Design and synthesis of new hybrids from 2-cyano-3,12-dioxooleana- 9-dien-28-oic acid and O2-(2,4-dinitrophenyl) diazeniumdiolate for intervention of drug-resistant lung cancer” (Eur J Med Chem, 2018):
# Active and inactive are the calls of the source. The rule behind the calls is not given here.
# Tests used:
# A549/TR [1] = experiment: Induction of apoptosis in human A549/TR cells assessed as early apoptotic cells at 4.8 uM after 24 hrs by Annexin-V-FITC/propidium iodide staining-based flow cytometric analysis (reference value: 3.42%); assay type: functional
# A549/TR [2] = experiment: Induction of apoptosis in human A549/TR cells assessed as viable cells at 4.8 uM after 24 hrs by Annexin-V-FITC/propidium iodide staining-based flow cytometric analysis (reference value: 95.1%); assay type: functional; conditions: read-out: Activity
# A549/TR [3] = experiment: Cell cycle arrest in human A549/TR cells assessed as accumulation at G0/G1 phase at 2.4 uM after 24 hrs by propidium iodide/RNase-staining based flow cytometric analysis (reference value: 62.5%); assay type: functional
# MRC5 [4] = experiment: Induction of nitric oxide production in human MRC5 cells at 50 uM after 6 hrs by Griess assay; assay type: cell-based; conditions: mrc5, 6 h
# A549/TR [5] = experiment: Induction of apoptosis in human A549/TR cells assessed as late apoptotic cells at 1.2 uM after 24 hrs by Annexin-V-FITC/propidium iodide staining-based flow cytometric analysis (reference value: 1.24%); assay type: functional
# A549/TR [6] = experiment: Induction of apoptosis in human A549/TR cells assessed as early apoptotic cells at 1.2 uM after 24 hrs by Annexin-V-FITC/propidium iodide staining-based flow cytometric analysis (reference value: 3.42%); assay type: functional
# A549/TR [7] = experiment: Cell cycle arrest in human A549/TR cells assessed as accumulation at G2/M phase at 2.4 uM after 24 hrs by propidium iodide/RNase-staining based flow cytometric analysis (reference value: 24.7%); assay type: functional
# A549/TR [8] = experiment: Induction of apoptosis in human A549/TR cells assessed as necrotic cells at 4.8 uM after 24 hrs by Annexin-V-FITC/propidium iodide staining-based flow cytometric analysis (reference value: 0.22%); assay type: functional
# A549/TR [9] = experiment: Induction of apoptosis in human A549/TR cells assessed as early apoptotic cells at 2.4 uM after 24 hrs by Annexin-V-FITC/propidium iodide staining-based flow cytometric analysis (reference value: 3.42%); assay type: functional
# A549/TR [10] = experiment: Cell cycle arrest in human A549/TR cells assessed as accumulation at G2/M phase at 4.8 uM after 24 hrs by propidium iodide/RNase-staining based flow cytometric analysis (reference value: 24.7%); assay type: functional
# A549/TR [11] = experiment: Induction of apoptosis in human A549/TR cells assessed as late apoptotic cells at 2.4 uM after 24 hrs by Annexin-V-FITC/propidium iodide staining-based flow cytometric analysis (reference value: 1.24%); assay type: functional
# A549/TR [12] = experiment: Induction of apoptosis in human A549/TR cells assessed as necrotic cells at 1.2 uM after 24 hrs by Annexin-V-FITC/propidium iodide staining-based flow cytometric analysis (reference value: 0.22%); assay type: functional
# A549/TR [13] = experiment: Induction of apoptosis in human A549/TR cells assessed as late apoptotic cells at 4.8 uM after 24 hrs by Annexin-V-FITC/propidium iodide staining-based flow cytometric analysis (reference value: 1.24%); assay type: functional
# A549/TR [14] = experiment: Cell cycle arrest in human A549/TR cells assessed as accumulation at G0/G1 phase at 1.2 uM after 24 hrs by propidium iodide/RNase-staining based flow cytometric analysis (reference value: 62.5%); assay type: functional
# A549/TR [15] = experiment: Induction of apoptosis in human A549/TR cells assessed as viable cells at 2.4 uM after 24 hrs by Annexin-V-FITC/propidium iodide staining-based flow cytometric analysis (reference value: 95.1%); assay type: functional; conditions: read-out: Activity
# [16] = Resistant factor, ratio of IC50 for human A549/TR cells to IC50 for human A549 cells; assay type: functional
# A549/TR [17] = experiment: Induction of ROS generation in human A549/TR cells at 2.4 to 9.6 uM after 24 hrs by DCFH-DA dye-based flow cytometric analysis; assay type: functional, cell-based
# A549 = experiment: cells; conditions: Homo sapiens, A549, 72 h
# Description: Antiproliferative activity against human A549 cells after 72 hrs by MTT assay
# A549/TR [18] = experiment: Induction of nitric oxide production in human A549/TR cells at 50 uM after 6 hrs by Griess assay; assay type: functional, cell-based
# A549/TR [19] = experiment: Cell cycle arrest in human A549/TR cells assessed as accumulation at G2/M phase at 1.2 uM after 24 hrs by propidium iodide/RNase-staining based flow cytometric analysis (reference value: 24.7%); assay type: functional
# A549/TR [20] = experiment: Induction of apoptosis in human A549/TR cells assessed as necrotic cells at 2.4 uM after 24 hrs by Annexin-V-FITC/propidium iodide staining-based flow cytometric analysis (reference value: 0.22%); assay type: functional
# A549/TR [21] = experiment: Induction of apoptosis in human A549/TR cells assessed as viable cells at 1.2 uM after 24 hrs by Annexin-V-FITC/propidium iodide staining-based flow cytometric analysis (reference value: 95.1%); assay type: functional; conditions: read-out: Activity
# A549/TR [22] = experiment: Downregulation of Lon expression in human A549/TR cells at 4.8 uM after 24 hrs by Western blot analysis; assay type: functional, cell-based
# A549/TR [23] = experiment: Cell cycle arrest in human A549/TR cells assessed as accumulation at G0/G1 phase at 4.8 uM after 24 hrs by propidium iodide/RNase-staining based flow cytometric analysis (reference value: 62.5%); assay type: functional
# A549/TR [24] = experiment: Antiproliferative activity against human A549/TR cells after 72 hrs by MTT assay; assay type: functional, cell-based
# A549/TR [25] = experiment: Cell cycle arrest in human A549/TR cells after 24 hrs by propidium iodide/RNase-staining based flow cytometric analysis; assay type: functional
# A549/TR [26] = experiment: Downregulation of Lon expression in human A549/TR cells after 24 hrs by Western blot analysis; assay type: functional, cell-based
# A549/TR [27] = experiment: Induction of apoptosis in human A549/TR cells after 24 hrs by Annexin-V-FITC/propidium iodide staining-based flow cytometric analysis; assay type: functional, cell-based
# A549/TR [28] = experiment: Growth inhibition of human A549/TR cells at 1 uM after 72 hrs in presence of ROS scavenger NAC by MTT assay; assay type: functional
# A549/TR [29] = experiment: Induction of ROS generation in human A549/TR cells after 24 hrs by DCFH-DA dye-based flow cytometric analysis; assay type: functional, cell-based
# [30] = Potency index, ratio of taxol IC50 to compound IC50 for antiproliferative activity against human A549/TR cells; assay type: functional
# A549/TR [31] = experiment: Growth inhibition of human A549/TR cells at 1 uM after 72 hrs in presence of NO scavenger hemoglobin by MTT assay; assay type: functional
# A549/TR [32] = experiment: Antiproliferative activity against human A549/TR cells at 1 uM after 72 hrs by MTT assay; assay type: functional
# A549/TR [33] = experiment: Growth inhibition of human A549/TR cells at 1 uM after 72 hrs in presence of GSTpi inhibitor etacrynic acid by MTT assay; assay type: functional
# MRC5 [34] = experiment: Antiproliferative activity against human MRC5 cells after 72 hrs by MTT assay; assay type: cell-based; conditions: MRC5, 72 h
Compound,Activity (A549/TR [1]),viability at 4.8 µM (A549/TR [2]),Activity (A549/TR [3]),Activity (MRC5 [4]),Activity (A549/TR [5]),Activity (A549/TR [6]),Activity (A549/TR [7]),Activity (A549/TR [8]),Activity (A549/TR [9]),Activity (A549/TR [10]),Activity (A549/TR [11]),Activity (A549/TR [12]),Activity (A549/TR [13]),Activity (A549/TR [14]),viability at 2.4 µM (A549/TR [15]),Ratio IC50 [16],IC50 (A549),Activity (A549/TR [18]),Activity (A549/TR [19]),IC50 (A549/TR [24]),further results
CCOC(=O)N1CCN(/[N+]([O-])=N/Oc2ccc([N+](=O)[O-])cc2[N+](=O)[O-])CC1,7.76%,87%,54.4%,Toxic,2.38%,6.75%,32%,1.04%,5.63%,38.7%,1.94%,0.34%,4.19%,65.3%,92.1%,0.9,2310 nM,Active,24.5%,1990 nM,Activity (A549/TR [17]): Active; Activity (A549/TR [20]): 0.37%; viability at 1.2 µM (A549/TR [21]): 90.5%; Activity (A549/TR [22]): Active; Activity (A549/TR [23]): 47.7%
CN(CCO)/[N+]([O-])=N/Oc1cc(N2CCN(C(=O)[C@]34CCC(C)(C)C[C@H]3[C@H]3C(=O)C=C5[C@@]6(C)C=C(C#N)C(=O)C(C)(C)[C@@H]6CC[C@@]5(C)[C@]3(C)CC4)CC2)c([N+](=O)[O-])cc1[N+](=O)[O-],15.8%,59.7%,47.9%,Toxic,3.09%,5.11%,38.9%,3.15%,12.8%,48.3%,14.4%,0.27%,21.4%,61.3%,70%,0.3,1070 nM,Active,28.3%,349 nM,Activity (A549/TR [25]): Dose-dependent effect; Activity (A549/TR [26]): Dose-dependent effect; Activity (A549/TR [27]): Dose-dependent effect; growth inhibition (GI) (A549/TR [28]): inactive; Activity (A549/TR [29]): Dose-dependent effect; Ratio IC50 [30]: 10; growth inhibition (GI) (A549/TR [31]): inactive; Activity (A549/TR [32]): >50%; Activity (A549/TR [20]): 2.78%; viability at 1.2 µM (A549/TR [21]): 91.6%; growth inhibition (GI) (A549/TR [33]): inactive; Activity (A549/TR [23]): 39.4%; IC50 (MRC5 [34]): 1600 nM
CC1(C)CC[C@]2(C(=O)N3CCN(c4cc(O/N=[N+](\[O-])N5CCOCC5)c([N+](=O)[O-])cc4[N+](=O)[O-])CC3)CC[C@]3(C)[C@H](C(=O)C=C4[C@@]5(C)C=C(C#N)C(=O)C(C)(C)[C@@H]5CC[C@]43C)[C@@H]2C1,–,–,–,–,–,–,–,–,–,–,–,–,–,–,–,0.9,1080 nM,–,–,941 nM,Activity (A549/TR [32]): >50%
CC(=O)O[C@H]1C(=O)[C@@]2(C)[C@H]([C@H](OC(=O)c3ccccc3)[C@]3(O)C[C@H](OC(=O)[C@H](O)[C@@H](NC(=O)c4ccccc4)c4ccccc4)C(C)=C1C3(C)C)[C@]1(OC(C)=O)CO[C@@H]1C[C@@H]2O [PACLITAXEL],–,–,–,–,–,–,–,–,–,–,–,–,–,–,–,445,7 nM,–,–,3110 nM,–
